Reference: patent publication US5554613A, “Heterocyclic derivatives” (Zeneca Limited, priority 1992, dated 1996)

Assays:
[1] = tested on: de novo hepatic cholesterol synthesis; experiment: Acute rat cholesterol synthesis assay (de novo hepatic cholesterol synthesis from 14C-acetate); assay type: in vivo; details: female rats, oral gavage, ip or iv dosing, [2-14C]-acetate ip after 1 hour
Description: (b) Ache rat cholesterol synthesis assay.
This is an acute in vivo test in the rat to measure de novo hepatic cholesterol synthesis from exogenously administered ^14 C-acetate.
Female rats (35-55 g) are housed in reverse lighting conditions (red light from 0200h-1400h) for a period of about 2 weeks prior to test. Animals are allowed free access to chow and drinking water throughout this period. At test, animals should weigh 125-150 g.
Test compounds may be administered by oral gavage, dissolved or suspended in 0.5% polysorbate, or by ip or iv dosing. Control animals receive vehicle alone. After 1 hour the rats are injected ip with 25 μCi [2-^14 C]-acetate (NEN DUPONT. specific activity, 45-60 mCi/mmol NEC-085H, or AMERSHAM specific activity, 50-60mCi/mmol CFA 14) in a volume of 0.25 ml saline (100 μCi/ml). After a further hour, rats are terminally anaesthetised with halothane and a blood sample obtained from the abdominal vena cava.
1 ml of plasma is lyophilised and then saponified in 2 ml ethanolic KOH (1 part 33% KOH, 9 parts ethanol) at 75° C. for 2 hours. After addition of an equal quantity of water, non-saponifiable lipids are extracted with two 5 ml volumes of hexane. The hexane extracts are evaporated to dryness and the residues dissolved in ethanol to determine cholesterol specific radioactivity. ED50 values can be determined in the standard way.

[2] = molecular target: T1, Squalene synthase (Rattus norvegicus, UniProt Q02769); experiment: Inhibition of Squalene synthase (formation of squalene from tritiated farnesyl pyrophosphate, rat liver microsomal protein); assay type: biochemical; details: at a concentration of 2.5 μM; rat liver microsomes
T1 construct: rat liver microsomal protein; from tissue; host or cells: rat liver microsomes
T1 sequence (Q02769 1-416): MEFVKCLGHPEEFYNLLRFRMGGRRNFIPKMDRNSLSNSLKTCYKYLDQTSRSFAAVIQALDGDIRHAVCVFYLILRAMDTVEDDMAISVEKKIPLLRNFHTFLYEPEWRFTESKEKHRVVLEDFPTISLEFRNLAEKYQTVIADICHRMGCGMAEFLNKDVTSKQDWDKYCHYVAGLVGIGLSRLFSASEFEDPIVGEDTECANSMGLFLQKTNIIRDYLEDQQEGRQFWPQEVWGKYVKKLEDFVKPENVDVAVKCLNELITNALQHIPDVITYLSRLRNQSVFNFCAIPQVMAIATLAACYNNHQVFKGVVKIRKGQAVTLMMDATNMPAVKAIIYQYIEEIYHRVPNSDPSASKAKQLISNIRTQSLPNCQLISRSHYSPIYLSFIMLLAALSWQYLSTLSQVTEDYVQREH
Description: (a) Inhibition of Squalene synthase
In this test, the ability of a compound to prevent the formation of squalene from a radioactive substrate (tritiated farnesyl pyrophosphate) is assessed.
The test compound is incubated at a concentration of […] in 200 μl of a buffered solution containing potassium phosphate (50 mM), MgCl2 (4.95 mM), KF (9.9 mM), NADPH (0.9 mM) and rat liver microsomal protein (20 μg). Rat liver microsomes are prepared by the method described in published European Patent Application No. 324,421 and stored in liquid nitrogen prior to assay. Assay vials are kept at 37° C. throughout the incubation.
The reaction is started with the addition of the substrate (1-[^3 H]-farnesyl pyrophosphate), final concentration 20 μM, and stopped after 15 minutes reaction time with the addition of 50 μl of 4% KOH. The reaction products are separated from unreacted substrate after application to a C-18 octadecyl 1 ccBond column (Analytichem Int product No. 617101). An aqueous fraction is eluted with 250 μl of 0.1M KOH. Squalene is then eluted with 1.0 ml 10% ethylacetate in hexane and radioactivity determined. The difference in radioactivity in the presence and absence of the test compound is used to determine the level of inhibition. […] The IC50 can then be determined from a plot of percentage inhibition against concentration of test compound.

Structure (SMILES)	ED50 [1] [mg/kg]	inhibition at 2.5 µM [2] [%]
OC1(c2ccc(-c3ccccn3)cc2)CN2CCC1CC2 (stereo not drawn) [Example 2, 3-[4-(pyrid-2-yl)phenyl]quinuclidin-3-ol]	14	–
OC1(c2ccc(-c3cncnc3)cc2)CN2CCC1CC2 (stereo not drawn) [Example 4, 3-[4-(pyrimidin-5-yl)phenyl]quinuclidin-3-ol]	4.5	~54
